According to ChEMBL document CHEMBL1130785, “A labeled guanidine ligand for studying sweet taste” (Bioorg Med Chem Lett, 1998):

Experiment: The compound was evaluated for binding affinity towards monoclonal antibody NC10.14 using competitive radioimmunoassay.

Kd: 18 nM
SMILES: N#Cc1ccc(N/C(=N\CC(=O)O)NC(c2ccccc2)c2ccccc2)cc1
